# Assay results from article PMC10573977, “PNA6, a Lactosyl Analogue of Angiotensin-(1-7), Reverses Pain Induced in Murine Models of Inflammation, Chemotherapy-Induced Peripheral Neuropathy, and Metastatic Bone Disease” (International Journal of Molecular Sciences, 2023).
# Residues, ends and D or L forms follow the SMILES beside them. *: point of attachment. X1 = OC[C@H]1O[C@@H](O[C@H]2[C@H](O)[C@@H](O)[C@H](*)O[C@@H]2CO)[C@H](O)[C@@H](O)[C@H]1O
# Assays:
# in vivo = settings: male, Sprague Dawley, rat, serum, iv, 10 mg/kg
# Procedure: To directly compare the in vivo lifetime and the ability of PNA6 to cross the blood–brain barrier (BBB), we devised a methodology that combines simultaneous blood sampling with microdialysis. PNA6 was administered via a single tail vein injection at a dosage of 10 mg/kg. Blood samples were collected at specific time intervals relative to the injection, including t = −10, 1, 5, 10, 20, 30, 40, 50, 60, 70, 80, and 90 min (with t = 0 corresponding to the moment of injection) as shown in Figure 4. The determination of serum and cerebrospinal fluid (CSF) concentrations of PNA6 involved the utilization of a calibration curve, which accounted for factors such as dilution and probe recovery specific to each experimental condition.
# Animals for Dialysis: Male Sprague Dawley rats (275–325 g) were used for dialysis experiments in vivo.
# The compounds were injected intravenously at 10 mg/kg via a single tail vein injection. Blood draws were taken at t = −10, 1, 5, 10, 20, 30, 40, 50, 60, 70, 80, and 90 min (where t = 0 corresponds to injection). Microdialysis fractions were time-locked with blood draws at 10 min increments such that blood draws correlated with the median time of the microdialysis fraction. For microdialysis, a dual syringe pump (PHD 2000, Harvard Apparatus, Holliston, MA, USA) was set to a flow rate of 0.5 mL/minute. […]
# cancer-induced bone loss = test: Radiographic analysis of femur bone integrity (bone score); format: in vivo, mouse
# From the text: Radiographic images of mice’s right femurs with established (CIBP) or sham were captured using a Faxitron machine. Bone loss was rated and evaluated using a bone score scale by a blinded observer where 0 = normal healthy bone; 1 = 1–3 lesions; 2 = 4 to 6 lesions; 3 = uni-cortical bone fractures; and 4 = bicortical bone fractures.
# A digital Faxitron machine (Ultrafocus; Faxitron Bioptics, Tucson, AZ) was used to image the femurs of all mice (all groups in chronic studies) on days 0 (baseline), 7, 10, and 14 post-surgery to determine an average bone score and to exclude the data for any mice with full cortical fracture before day 14. Two blinded observers evaluated the images using a 5-point bone rating scale. Mice were anesthetized with 80 mg/kg ketamine to 12 mg/kg xylazine (in a 10 mL/kg volume) on day 0 before the surgery, D7, D10, and D14, and radiographs were acquired. The bone scoring scale was as follows: 0 = normal bone, 1 = 1–3 lesions with no fracture, 2 = 4+ lesions with no fracture, 3 = uni-cortical, full thickness fracture, and 4 = bicortical, full thickness fracture. Animals with bicortical, full fractures were euthanized as our IACUC protocol measures dictated.
# naïve mice = settings: 1 mg/kg i.p., 30, 60, 90 and 120 min after treatment, 10 rpm, cut-off 180 s, vs vehicle
# Procedure: The rotarod test is widely used to evaluate the motor coordination of rodents, and we used it to determine the motor effect of PNA6 to prevent interpretation of behavior as a false positive. Four days before testing, naïve mice were trained to acclimate to the rotating rod (LE8505 Rota-Rod, Panlab Harvard Apparatus, Spain) at a constant speed of 10 rpm. A maximal cut-off time of 180 s was used to prevent exhaustion. On the day of testing, mice were baselined and re-evaluated at 30, 60, 90, and 120 min after treatment.
# [1] = no reference given, cited from earlier work
# From the text: Our team has taken a novel approach to treating CIPN by taking advantage of our extensive experience with the G-protein linked Mas receptor and its agonist Ang-(1-7) to develop a platform of glycosylated Ang-(1-7) Mas receptor agonists including PNA5 and PNA6 that have outstanding brain penetration, enhanced bioavailability, decreased brain and peripheral inflammation, improved cerebral blood flow, and restored cognitive function in our preclinical vascular dementia and TBI animal models. Activation of Mas decreases ROS and brain inflammation, increases cerebral circulation, increases inductio ...
# [2] = molecular target: Mas receptor (Homo sapiens) (UniProt P04201); settings: cited from earlier work
# Mas receptor (MasR1) = settings: cited from earlier work
# From the text: The renin-angiotensin system (RAS) is a crucial player in regulating blood pressure and fluid homeostasis. The octapeptide, Angiotensin II, is the first significant end product. Angiotensin II binds strongly to G-coupled protein receptors (GPCRs), Angiotensin receptor type 1 (AT1), to produce vasoconstriction, sodium-water retention, inflammation, and fibrosis; and it binds weakly to Angiotensin II receptor type II (AT2), which produces vasodilation and angiogenesis. Angiotensin II is cleaved by Angiotensin-converting enzyme 2 (ACE2) to yield the heptapeptide, Ang-(1-7), which ha ...
# Sequence of Angiotensin-(1-7) (P01019 whole entry, looked up): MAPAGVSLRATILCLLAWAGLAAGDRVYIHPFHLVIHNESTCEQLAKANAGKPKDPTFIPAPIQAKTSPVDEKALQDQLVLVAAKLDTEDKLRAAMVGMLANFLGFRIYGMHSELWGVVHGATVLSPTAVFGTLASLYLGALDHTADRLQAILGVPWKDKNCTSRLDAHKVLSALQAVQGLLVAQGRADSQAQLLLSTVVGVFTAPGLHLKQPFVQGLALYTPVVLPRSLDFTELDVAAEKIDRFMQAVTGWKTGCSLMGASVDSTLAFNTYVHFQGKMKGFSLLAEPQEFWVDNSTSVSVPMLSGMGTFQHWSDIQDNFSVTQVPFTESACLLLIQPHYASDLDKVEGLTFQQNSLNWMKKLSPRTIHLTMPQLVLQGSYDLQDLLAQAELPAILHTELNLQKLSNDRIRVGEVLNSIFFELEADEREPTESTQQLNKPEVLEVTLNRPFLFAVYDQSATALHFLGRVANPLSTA
# Sequence of Mas receptor (Homo sapiens) (P04201 whole entry): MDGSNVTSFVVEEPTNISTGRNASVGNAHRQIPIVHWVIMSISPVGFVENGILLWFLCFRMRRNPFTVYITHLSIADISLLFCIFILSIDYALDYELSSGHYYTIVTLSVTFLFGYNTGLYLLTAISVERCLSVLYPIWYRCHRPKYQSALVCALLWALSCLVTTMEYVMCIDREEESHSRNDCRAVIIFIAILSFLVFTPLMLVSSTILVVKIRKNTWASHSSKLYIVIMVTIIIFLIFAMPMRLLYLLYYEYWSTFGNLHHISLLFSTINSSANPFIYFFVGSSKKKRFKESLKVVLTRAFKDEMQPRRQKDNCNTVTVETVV
molecule,measurement,setting,value
"CC[C@H](C)[C@H](NC(=O)[C@H](Cc1ccc(O)cc1)NC(=O)[C@@H](NC(=O)[C@H](CCCNC(=N)N)NC(=O)[C@@H](N)CC(=O)O)C(C)C)C(=O)N[C@@H](Cc1c[nH]cn1)C(=O)N[C@@H](CO[C@@H]1O[C@H](CO)[C@@H](O[C@@H]2O[C@H](CO)[C@H](O)[C@H](O)[C@H]2O)[C@H](O)[C@H]1O)C(N)=O [PNA6, Asp-Arg-Val-Tyr-Ile-His-Ser-(O-β-Lact)-amide] (H-DRVYIHS(X1)-NH2)",Tmax,in vivo,1 min
same,half-life,in vivo,22.1 min
same,cancer-induced bone loss vs vehicle,"cancer-induced bone loss; cancer-bearing mice, chronic treatment, radiographs day 14, n = 10–12",did not exacerbate cancer-induced bone loss degradation
same,bone remodeling in sham animals,"cancer-induced bone loss; sustained saline or PNA6, day 14",had no change in bone remodeling
same,time spent on the rotating rod,naïve mice,neither increased nor decreased the time
same,penetration into the CNS,[1]; 'has been shown',good penetration into the CNS
Angiotensin-(1-7) (from UniProt P01019),Kd,[2],0.83 nM
"DRVYIHP [Ang-(1-7), Angiotensin-(1-7)]",selectivity for MasR1 over AT1 receptor,Mas receptor (MasR1); greater selectivity over AT1,60 fold
same,selectivity for MasR1 over AT2 receptor,Mas receptor (MasR1); greater selectivity over AT2,100 fold
same,half-life in vivo,[1]; degraded rapidly by enzymes,short half-life in vivo
